This note sets out measurements from patent US12110527B2, “Production of symmetrical bolaform sophorosides” (priority 2018, dated 2024).

The assay has as its system S. bombicola Δcyp52M1Δfao1 strain. The assay is described as follows: Shake flask cultivation fed with different primary fatty alcohols: follow-up of growth (CFU) and glucose consumption. Format: cell-based, Starmerella bombicola. The conditions noted are these: for glucose consumption rate: alcohol fed at 1.8 (w/v) % after 48 h of cultivation, shake flask. As to the method:
Production experiments using S. bombicola were performed using the production medium described by Lang et al. (2000). For shake flask experiments, 5 ml tube cultures were set up 24 h (30° C.), before transferring to shake flasks (4% inoculation). Production experiments were executed with feeding of fatty alcohols: oleyl alcohol, stearyl alcohol, lauryl alcohol, myristyl alcohol or cetyl alcohol which were added after 48 h of cultivation. The Δcyp52M1Δfao1 strain was also assessed without addition of the hydrophobic alcohol. For every production experiment, cultivation was stopped when glucose was depleted from the medium. Experiments were performed in duplicate, and average values with standard deviations are presented.
Optical density (OD) of cultures was measured at 600 nm using the Jasco V 630 Bio spectrophotometer (Jasco Europe) of 1 mL samples diluted with physiological solution (9 g/L NaCl). The viability of yeast cells in cultivation experiments was assessed by determining colony forming units (CFUs) which were expressed as the average logarithm of CFUs per culture volume as log (CFU/mL) (Saerens et al., 2011). Alternatively, Cell Dry Weight (CDW) was determined by centrifuging 1 mL fermentation samples at 14000 rpm for 5 min in tared Eppendorf tubes, and subsequently washing the cell pellets twice with 1 mL physiological solution. The remaining cell pellet was put into a 70° C. oven for 5 days and then weighed afterwards. The CDW (g/L) was calculated after subtraction of the empty weight of the Eppendorf tube.
Glucose concentrations were determined using the 2700 Select Biochemistry Analyser (YSI Inc.) or using Ultra Performance Liquid Chromatography (Waters Acquity H-Class UPLC), coupled with an Evaporative Light Scattering Detector (Waters Acquity ELSD Detector) (UPLC-ELSD). For the UPLC analysis, an Acquity UPLC BEH Amide column (130 Å, 1.7 μm, 2.1×100 mm) (Waters) was used at 35° C. and an isocratic flow rate of 0.5 mL/min of 75% acetonitrile and 0.2% triethylamine (TEA) was applied (5 min/sample). For the ELS detection, the nebulizer was cooled to 15° C. and the drift tube was kept at a temperature of 50° C. […] To express glucose consumption, a linear curve was fitted through the obtained glucose concentrations by UPLC-ELSD, and the respective slope was taken and denoted as the glucose consumption rate (g/L·h).
When two different groups were compared, the Welch's test was performed with a 95% confidence level using GraphPad Prism 7.04 software. For multiple group comparisons, analysis of variance (ANOVA) with Bonferroni's multiple comparison test correction with a 95% confidence level using GraphPad Prism 7.04 software was employed. For parameters pH, CFU, OD and glucose consumption, average values were taken when the yeast cells attained their stationary phase (after 48 h of cultivation). In general, data represented in graphs are the average and standard deviation of two experimental replicates (unless stated otherwise).
Unexpectedly, no successful uniform production of either bola SSs or alkyl SSs was obtained for the Δcyp52M1Δfao1 strain when feeding with oleyl alcohol. Instead, mixtures of both were found, although the majority of the novel glycolipids were (acetylated) bola SSs and only minor amounts of alkyl SS were produced. The production of tetra-acetylated bola SS was unexpected, since the CYP52M1 enzyme was thought to be the only enzyme involved in glycolipid production thus far in S. bombicola. To assess the influence on the chain lengths of primary alcohols to the glycolipid production, different substrates were fed to the Δcyp52M1Δfao1 strain. The parental strain Δcyp52M1 was assessed in parallel. Medium and long-chain alcohols were selected between a chain length of 12 and 18, similarly as reported by Davila et al. (1994) for alkanes. Similarly as for the experiments described above, the hydrophobic substrate was added after 48 h of cultivation.

Molecules are shown by their SMILES.

As for `CCCCCCCCCCCCCCCCO` [cetyl alcohol], the glucose consumption rate is on record as 0.38 g/L·h.
As for `CCCCCCCCCCCCO` [lauryl alcohol], for the setting “addition 48 h after inoculation”, the “glucose consumption after addition of the alcohol” value is given as “stopped”. For the same compound, under “after addition of the alcohol, 1.8 (w/v) % added after 48 h of cultivation, in contrast to all other fed substrates (FIG. 8A)”, the “CFUs (log (CFU/mL))” value is “significant drop”. The “glucose consumption rate after it initiated again” value (only Δcyp52M1Δfao1 strain, 100 h after substrate addition, until all glucose was depleted) was 0.33 g/L·h.
In the case of `CCCCCCCCCCCCCCO` [myristyl alcohol], the glucose consumption rate is recorded as 0.48 g/L·h.
Compound `CCCCCCCC/C=C\CCCCCCCCO` [oleyl alcohol] registered a glucose consumption rate of 0.48 g/L·h.
For `CCCCCCCCCCCCCCCCCCO` [stearyl alcohol], the glucose consumption rate came to 0.38 g/L·h.
